System: MDA-MB-468 spheroids with HUVEC/MSC, viability
Assay: Anticancer human tumor MDA-MB-468 cell line growth inhibition [PI3K];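 also: spheroids exposed to agents for seven days before readout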;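 as to viability, T/C: 100% = DMSO vehicle control viability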
Conditions: for IC50: curve of first compound; for viability, T/C: stronger effect = lower value
Outline: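 Stroma-containing spheroids: tumor line, pooled-donor HUVEC, hMSC. Treatments: targeted agents with PI3K inhibitors. Dosing: clinically relevant, half-log spacing, 10 microM ceiling without known Cmax. Read-out: cell viability.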

[1] = second compound 0.00316 µM, first compound 0.0316 µM
[2] = second compound 0.00316 µM, first compound 0.1 µM
[3] = second compound 0.01 µM, first compound 0.0316 µM
[4] = second compound 0.01 µM, first compound 0.1 µM
[5] = second compound 0.0316 µM, first compound 0.0316 µM
[6] = second compound 0.0316 µM, first compound 0.1 µM
[7] = second compound 0.1 µM, first compound 0.0316 µM
[8] = second compound 0.1 µM, first compound 0.1 µM
[9] = second compound 0.316 µM, first compound 0.0316 µM
[10] = second compound 0.316 µM, first compound 0.1 µM
[11] = second compound 1 µM, first compound 0.0316 µM
[12] = second compound 1 µM, first compound 0.1 µM

For `CC(C)n1nc(-c2ccc3oc(N)nc3c2)c2c(N)ncnc21` + COc1c(OCCCN2CCOCC2)ccc2c3n(c(=NC(=O)c4cnc(N)nc4)nc12)CCN3, the IC50 (second compound 0.00316 µM) was 34.2 nM, the IC50 (second compound 0.01 µM) was 41.7 nM and the IC50 (second compound 0.0316 µM) was 32 nM. The IC50 (second compound 0.1 µM) was 10.4 nM, the IC50 (second compound 0.316 µM) was less than 0.316 nM and the IC50 (second compound 1 µM) was less than 0.316 nM. For the same molecule, the viability, T/C (second compound 0.00316 µM, first compound 0.000316 µM) was 81.1%, the viability, T/C (second compound 0.00316 µM, first compound 0.001 µM) was 87% and the viability, T/C (second compound 0.00316 µM, first compound 0.00316 µM) was 95.5%. It also gave a viability, T/C (second compound 0.00316 µM, first compound 0.01 µM) of 88.3%, a viability, T/C [1] of 52.3% and a viability, T/C [2] of 18.8%. For the same molecule, the viability, T/C (second compound 0.01 µM, first compound 0.000316 µM) was 77.2%, the viability, T/C (second compound 0.01 µM, first compound 0.001 µM) was 83.5% and the viability, T/C (second compound 0.01 µM, first compound 0.00316 µM) was 87.7%. It also gave a viability, T/C (second compound 0.01 µM, first compound 0.01 µM) of 81.1%, a viability, T/C [3] of 61.1% and a viability, T/C [4] of 14.9%. It also gave a viability, T/C (second compound 0.0316 µM, first compound 0.000316 µM) of 75.6%, a viability, T/C (second compound 0.0316 µM, first compound 0.001 µM) of 84.4% and a viability, T/C (second compound 0.0316 µM, first compound 0.00316 µM) of 80.9%. It also gave a viability, T/C (second compound 0.0316 µM, first compound 0.01 µM) of 68%, a viability, T/C [5] of 51.2% and a viability, T/C [6] of 11.6%. The viability, T/C (second compound 0.1 µM, first compound 0.000316 µM) was 49.8%, the viability, T/C (second compound 0.1 µM, first compound 0.001 µM) was 63.6% and the viability, T/C (second compound 0.1 µM, first compound 0.00316 µM) was 53.7%. For the same molecule, the viability, T/C (second compound 0.1 µM, first compound 0.01 µM) was 49.9%, the viability, T/C [7] was 36% and the viability, T/C [8] was 7.66%. The viability, T/C (second compound 0.316 µM, first compound 0.000316 µM) was 28.2%, the viability, T/C (second compound 0.316 µM, first compound 0.001 µM) was 25.8% and the viability, T/C (second compound 0.316 µM, first compound 0.00316 µM) was 28.1%. The viability, T/C (second compound 0.316 µM, first compound 0.01 µM) was 24.9%, the viability, T/C [9] was 15.4% and the viability, T/C [10] was 3.12%. The viability, T/C (second compound 1 µM, first compound 0.000316 µM) was 3.84%, the viability, T/C (second compound 1 µM, first compound 0.001 µM) was 3.57% and the viability, T/C (second compound 1 µM, first compound 0.00316 µM) was 2.98%. For the same molecule, the viability, T/C (second compound 1 µM, first compound 0.01 µM) was 3%, the viability, T/C [11] was 1.87% and the viability, T/C [12] was 0.59%.

Molecule `CC1(C)CCC(CN2CCN(c3ccc(C(=O)NS(=O)(=O)c4ccc(NCC5CCOCC5)c([N+](=O)[O-])c4)c(Oc4cnc5[nH]ccc5c4)c3)CC2)=C(c2ccc(Cl)cc2)C1` + COc1c(OCCCN2CCOCC2)ccc2c3n(c(=NC(=O)c4cnc(N)nc4)nc12)CCN3 has an IC50 (second compound 0.00316 µM) greater than 10000 nM, an IC50 (second compound 0.01 µM) greater than 10000 nM and an IC50 (second compound 0.0316 µM) greater than 10000 nM. The IC50 (second compound 0.1 µM) was greater than 10000 nM, the IC50 (second compound 0.316 µM) was less than 31.6 nM and the IC50 (second compound 1 µM) was less than 31.6 nM. The viability, T/C [1] was 80.4%, the viability, T/C [2] was 87% and the viability, T/C (second compound 0.00316 µM, first compound 0.316 µM) was 82.9%. It also gave a viability, T/C (second compound 0.00316 µM, first compound 1 µM) of 99.9%, a viability, T/C (second compound 0.00316 µM, first compound 3.16 µM) of 80.3% and a viability, T/C (second compound 0.00316 µM, first compound 10 µM) of 78.3%. The viability, T/C [3] was 79.2%, the viability, T/C [4] was 79.7% and the viability, T/C (second compound 0.01 µM, first compound 0.316 µM) was 92%. It also gave a viability, T/C (second compound 0.01 µM, first compound 1 µM) of 87.9%, a viability, T/C (second compound 0.01 µM, first compound 3.16 µM) of 76.2% and a viability, T/C (second compound 0.01 µM, first compound 10 µM) of 90.2%. The viability, T/C [5] was 77.5%, the viability, T/C [6] was 71.2% and the viability, T/C (second compound 0.0316 µM, first compound 0.316 µM) was 80%. For the same molecule, the viability, T/C (second compound 0.0316 µM, first compound 1 µM) was 83.1%, the viability, T/C (second compound 0.0316 µM, first compound 3.16 µM) was 73% and the viability, T/C (second compound 0.0316 µM, first compound 10 µM) was 69.6%. For the same molecule, the viability, T/C [7] was 55.7%, the viability, T/C [8] was 54.8% and the viability, T/C (second compound 0.1 µM, first compound 0.316 µM) was 69.7%. The viability, T/C (second compound 0.1 µM, first compound 1 µM) was 63.4%, the viability, T/C (second compound 0.1 µM, first compound 3.16 µM) was 52.5% and the viability, T/C (second compound 0.1 µM, first compound 10 µM) was 67.6%. The viability, T/C [9] was 26.4%, the viability, T/C [10] was 23.5% and the viability, T/C (second compound 0.316 µM, first compound 0.316 µM) was 25.5%. For the same molecule, the viability, T/C (second compound 0.316 µM, first compound 1 µM) was 28.9%, the viability, T/C (second compound 0.316 µM, first compound 3.16 µM) was 25.5% and the viability, T/C (second compound 0.316 µM, first compound 10 µM) was 22.8%. It also gave a viability, T/C [11] of 4.5%, a viability, T/C [12] of 3.78% and a viability, T/C (second compound 1 µM, first compound 0.316 µM) of 4.07%. The viability, T/C (second compound 1 µM, first compound 1 µM) was 3.93%, the viability, T/C (second compound 1 µM, first compound 3.16 µM) was 4.32% and the viability, T/C (second compound 1 µM, first compound 10 µM) was 4.03%.

From PubChem BioAssay AID1963960 (Molecular Pharmacology Branch, DTP, NCI, 2024)
